Data on 2 molecules can be found in paper PMC2375326, “In vitro evaluation of amino acid prodrugs of novel antitumour 2-(4-amino-3-methylphenyl)benzothiazoles” (British Journal of Cancer, 2002).

For orientation: GI50 means the concentration giving 50% growth inhibition.

One data set has as its system OVCAR-4. Description: NCI in vitro cytotoxicity assay (SRB), OVCAR-4. It is filed as cell-based. The note with it: Homo sapiens, 48 h exposure, sulforhodamine B assay, mean graph, read-out: Log10 GI50 (OVCAR-4) (converted). How it is done: (§1) Cell culture and drug application procedures have been described previously ([Boyd and Paull, 1995]). Briefly, cell lines were inoculated into a series of 96-well microtiter plates, with varied seeding densities depending on growth characteristics of each cell line. Following a 24 h drug free incubation, test agents were added at five 10-fold dilutions with a maximum concentration of 100 μM. Cellular protein levels were determined after 48 h drug exposure by sulphorhodamine B colorimetry.
For orientation: In SRB staining, fixed cells bind dye roughly in proportion to their protein.

Data set [1] has as its system CYP1A1 activity (EROD) in IGROV-1 cells. Description: EROD activity in homogenates of treated IGROV-1 cells. The note with it: IGROV-1 cells treated 24 h; biphasic dose response. It is filed as cell-based, human. How it is done:
A sensitive and rapid fluorometric assay was used to measure EROD activity ([Burke et al, 1994]). Incubation mixtures (total 1 ml) consisted of 100 mM Tris-HCl (pH 7.4), 50 μM MgCl2, 100 μM 7-ethoxyresorufin and 100 μl cell homogenate. Homogenates were prepared following treatment of cells for 24 h with compounds 1, 2, 2a, 2b, 3, 3a, 3b, 4, 4a and 4b or vehicle alone and protein content determined (n=3). Thus induction of ethoxyresorufin O-deethylation by agents under study, catalysed by CYP1A1 activity, could be determined. Alternatively, microsomes expressing recombinant CYP1A1 (0.1 mg ml^−1) provided the enzyme source for EROD catalysis, in the presence or absence of drug, in order to determine inhibition of CYP1A1 activity by compounds 1, 2, 2a, 2b, 3, 3a, 3b, 4, 4a and 4b. Incubation mixtures were pre-incubated for 5 min at 37°C before initiation of reaction by addition of NADPH (500 μM). Following further incubations at 37°C (30 min for cell homogenates, 15 min for CYP1A1 microsomes), reactions were terminated by addition of 3 ml ice-cold acetonitrile. […] Fluorescence was read on a Perkin-Elmer LS-5 luminescence spectrometer (excitation, 530 nm; emission 585 nm). Estimation of resorufin reaction product (pmoles mg^−1 protein, pmoles 100 μg^−1 microsomes), as a measure of CYP1A1 activity, was determined following performance of a resorufin standard curve.

For a further data set, the system named is SR. The experiment in a line: NCI in vitro cytotoxicity assay (SRB), SR. It is filed as cell-based. The note with it: Homo sapiens, 48 h exposure, sulforhodamine B assay, mean graph, read-out: Log10 GI50 (SR) (converted). How it is done:
as §1

A further data set has as its target T1, CYP1A1 (Homo sapiens, UniProt P04798).
T1 sequence (P04798 1-512): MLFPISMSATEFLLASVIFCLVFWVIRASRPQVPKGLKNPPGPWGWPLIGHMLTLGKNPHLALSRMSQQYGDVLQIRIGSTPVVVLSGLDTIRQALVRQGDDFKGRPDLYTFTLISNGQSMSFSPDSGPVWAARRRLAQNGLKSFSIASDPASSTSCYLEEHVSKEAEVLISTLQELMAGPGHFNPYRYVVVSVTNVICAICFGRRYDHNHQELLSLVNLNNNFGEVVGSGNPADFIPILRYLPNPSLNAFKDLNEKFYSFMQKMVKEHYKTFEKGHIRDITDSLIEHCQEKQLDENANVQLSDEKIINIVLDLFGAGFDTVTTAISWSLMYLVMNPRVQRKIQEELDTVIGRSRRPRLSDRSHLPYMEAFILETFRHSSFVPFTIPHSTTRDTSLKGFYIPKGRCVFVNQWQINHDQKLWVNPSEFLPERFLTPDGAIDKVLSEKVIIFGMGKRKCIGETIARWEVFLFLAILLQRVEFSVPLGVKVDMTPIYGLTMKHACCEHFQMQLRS
The experiment in a line: Inhibition of recombinant CYP1A1 microsomal EROD activity. The conditions noted are these: microsomes expressing recombinant CYP1A1, pH 7.4, probe 7-ethoxyresorufin (100 μM); 30 μM agent; incubates without drug = 100% activity; mean of three, s.d. <10%; read-out: Microsomal CYP1A1 EROD activity (% control). It is filed as biochemical. The method, then:
A sensitive and rapid fluorometric assay was used to measure EROD activity ([Burke et al, 1994]). Incubation mixtures (total 1 ml) consisted of 100 mM Tris-HCl (pH 7.4), 50 μM MgCl2, 100 μM 7-ethoxyresorufin and 100 μl cell homogenate. Homogenates were prepared following treatment of cells for 24 h with compounds 1, 2, 2a, 2b, 3, 3a, 3b, 4, 4a and 4b or vehicle alone and protein content determined (n=3). Thus induction of ethoxyresorufin O-deethylation by agents under study, catalysed by CYP1A1 activity, could be determined. Alternatively, microsomes expressing recombinant CYP1A1 (0.1 mg ml^−1) provided the enzyme source for EROD catalysis, in the presence or absence of drug, in order to determine inhibition of CYP1A1 activity by compounds 1, 2, 2a, 2b, 3, 3a, 3b, 4, 4a and 4b. Incubation mixtures were pre-incubated for 5 min at 37°C before initiation of reaction by addition of NADPH (500 μM). Following further incubations at 37°C (30 min for cell homogenates, 15 min for CYP1A1 microsomes), reactions were terminated by addition of 3 ml ice-cold acetonitrile. Reaction mixtures were centrifuged (1400 r.p.m., 10 min) before analyses of supernatants. Fluorescence was read on a Perkin-Elmer LS-5 luminescence spectrometer (excitation, 530 nm; emission 585 nm). Estimation of resorufin reaction product (pmoles mg^−1 protein, pmoles 100 μg^−1 microsomes), as a measure of CYP1A1 activity, was determined following performance of a resorufin standard curve.

In the next data set the test system is SF-539. The experiment in a line: NCI in vitro cytotoxicity assay (SRB), SF-539. It is filed as cell-based. The note with it: Homo sapiens, 48 h exposure, sulforhodamine B assay, mean graph, read-out: Log10 GI50 (SF-539) (converted). The method, then:
as §1

The next data set concerns BT-549. Description: NCI in vitro cytotoxicity assay (SRB), BT-549. It is filed as cell-based. The note with it: Homo sapiens, 48 h exposure, sulforhodamine B assay, mean graph, read-out: Log10 GI50 (BT-549) (converted). How it is done:
as §1

Another data set relates to RPMI-8226. Description: NCI in vitro cytotoxicity assay (SRB), RPMI-8226. It is filed as cell-based. The note with it: Homo sapiens, 48 h exposure, sulforhodamine B assay, mean graph, read-out: Log10 GI50 (RPMI-8226) (converted). How it is done:
as §1

Data set [2] concerns breast and ovarian xenografts. Further details: method as in Bradshaw et al, 2002. The conditions noted are these: in vivo; ref Bradshaw et al, 2002; cited from earlier work.
A further data set deals with HCC-2998. The experiment in a line: NCI in vitro cytotoxicity assay (SRB), HCC-2998. It is filed as cell-based. The note with it: Homo sapiens, 48 h exposure, sulforhodamine B assay, mean graph, read-out: Log10 GI50 (HCC-2998) (converted). How it is done:
as §1

Another data set has as its system SF-295. The experiment in a line: NCI in vitro cytotoxicity assay (SRB), SF-295. It is filed as cell-based. The note with it: Homo sapiens, 48 h exposure, sulforhodamine B assay, mean graph, read-out: Log10 GI50 (SF-295) (converted). The method, then: as §1
The subject of another data set is KM12. Description: NCI in vitro cytotoxicity assay (SRB), KM12. It is filed as cell-based. The note with it: Homo sapiens, 48 h exposure, sulforhodamine B assay, mean graph, read-out: Log10 GI50 (KM12) (converted). The method, then:
as §1

Details of data set [3]: method as in Bradshaw et al, 2002. The note with it: in vivo, compound 2 regenerated from lysylamide prodrug compound 2b; ref Bradshaw et al, 2002; cited from earlier work.
The next data set concerns MCF-7 cells. Description: Prodrug uptake, conversion and metabolism (HPLC of media), MCF-7. The conditions noted are these: prodrug 10 μM, days 1–7. It is filed as in vitro ADME, human. The method, then: MCF-7 cells were seeded into 25 ml flasks at appropriate densities (5×10^5–5×10^6). After 24 h, medium was changed and drug introduced at a final concentration of 10 μM. Media samples, collected from flasks at time zero and 24 h intervals, were mixed with 1.5-fold volumes of high performance liquid chromatography (HPLC) grade acetonitrile to precipitate protein and centrifuged at 14 000 g for 5 min. Supernatants (600 μl) were mixed with 400 μl 10% acetonitrile in 1% acetic acid and analysed by HPLC. The system consisted of Beckman System Gold equipment (solvent module 128, autosampler 507e and multiple wavelength UV detector 168). Separation of parent compounds and biotransformation products was effected at room temperature on a Phenomenex Aqua C18 reversed-phase column (150×4.6 mm). The mobile phase was formed by increasing, then decreasing the acetonitrile concentration in 1% acetic acid over 20 min by mixing two solutions: acetonitrile-water-acetic acid (10 : 90 : 1, v v^−1) and acetonitrile-water-acetic acid (80 : 20 : 1 v v^−1) and delivered at a flow rate of 1 ml min^−1. Compounds were detected at 324 nm.

Where only a bound is given, the exact number is not on record here.

In the case of `Cc1cc(-c2nc3cc(F)ccc3s2)ccc1NC(=O)[C@@H](N)CCCCN` [Compound 2b], the concentration for 50% growth inhibition (GI50) in the data set on OVCAR-4 was 2.04 µM; with SR, 0.562 µM; with SF-539 it was 14.1 µM; in the data set with BT-549, 14.1 µM; with RPMI-8226, 2.45 µM; with HCC-2998, 0.741 µM. In addition, the “Concentration giving maximum induction of EROD activity” value in data set [1] turned out to be 1000 nM. Besides, on CYP1A1, the activity at 15 min, 30 μM came out at 38.5%. In addition, the “Growth of breast and ovarian xenografts” value in [2] is “suppresses significantly”.
Consider `Cc1cc(-c2nc3cc(F)ccc3s2)ccc1N` [Compound 2, 2-(4-Amino-3-methylphenyl)-5-fluorobenzothiazole], for which the 50% growth inhibitory concentration (GI50) in the data set with SF-295 is 20.9 µM; in the data set on KM12, 69.2 µM; in the data set with SR it was < 0.01 µM; with SF-539 it was 27.5 µM; with BT-549 it was > 100 µM. In addition, the “Persistence of plasma concentrations sufficient for cytocidal activity against human mammary carcinoma cells” value in data set [3] is given as > 6 h. Further, the “Biotransformation products of liberated parent amine in media” value in the data set with MCF-7 cells is “No biotransformation products could be detected”. The activity at 15 min, 30 μM at CYP1A1 was determined as 30.4%.
